Laboratory results from patent publication US20180127800A1 (priority 2016, published 2018).

Molecular target: HIV-1 protease (Human immunodeficiency virus type 1 group M subtype B, UniProt P04585)
Assay type: cell-based
Conditions: Gal4/PR cell line induced by Dox, incubated with protease inhibitor
Source text: This type of cleavage was successfully monitored by a previously developed assay for HIV-1. The assay was developed in mammalian cells and relied on an engineered Gal4/protease fusion protein that travels to the nucleus and activates the GFP reporter gene when inhibited. The activation or lack thereof of the reporter GFP gene can be measured and quantified via flow cytometry.
In the absence of Dox, rtTA cannot bind to the Tet-Responsive Element (TRE) and consequently, there is no GFP expression from the reporter construct. In the presence of Dox, rtTA binds to TRE and induces GFP expression. […] In the presence of Dox, PR/Gal4 is expressed; however, its autocatalytic activity results in the separation of the Gal4 domains, resulting in turn in the lack of GFP expression. However, in the presence of protease inhibitor (PI), the PR/Gal4 fusion remains intact, resulting in the induction of GFP expression.
The plasmids include the rtTA, GFP reporter and Gal4 fusions. The Gal4 plasmids include Gal4 control, Gal4/PRm (mutant) and Gal4/PR.
In order to be able to easily discriminate between cleaved and non-cleaved events (or active and non-active protease), the assay relied on the classical Gal4/UAS system broadly used in gene expression experiments. […]

CC(C)(C)NC(=O)[C@@H]1CN(Cc2cccnc2)CCN1C[C@@H](O)C[C@@H](Cc1ccccc1)C(=O)N[C@H]1c2ccccc2C[C@H]1O [Indinavir]
GFP expression of the PR cell line (flow cytometry): not green when induced by Dox, unless it is also incubated with the PI IDV
